The target of test [1] is T1, Stimulator of interferon genes protein (Homo sapiens, UniProt Q86WV6). Put plainly: Activation of STING in human THP-1-Dual cells assessed as induction of type I IFNs by measuring stimulation of IRF pathway incubated for 48 hrs by luciferase reporter gene assay. Background: Reporter assays use an easily measured gene product as a stand-in for the process of interest.

Test [2] concerns the target T1, Stimulator of interferon genes protein. Put plainly: Activation of STING in human THP-1-Dual cells assessed as induction of type I IFNs by measuring stimulation of NF-kappaB pathway incubated for 48 hrs by luciferase reporter gene assay.

T1 sequence (Q86WV6 whole entry): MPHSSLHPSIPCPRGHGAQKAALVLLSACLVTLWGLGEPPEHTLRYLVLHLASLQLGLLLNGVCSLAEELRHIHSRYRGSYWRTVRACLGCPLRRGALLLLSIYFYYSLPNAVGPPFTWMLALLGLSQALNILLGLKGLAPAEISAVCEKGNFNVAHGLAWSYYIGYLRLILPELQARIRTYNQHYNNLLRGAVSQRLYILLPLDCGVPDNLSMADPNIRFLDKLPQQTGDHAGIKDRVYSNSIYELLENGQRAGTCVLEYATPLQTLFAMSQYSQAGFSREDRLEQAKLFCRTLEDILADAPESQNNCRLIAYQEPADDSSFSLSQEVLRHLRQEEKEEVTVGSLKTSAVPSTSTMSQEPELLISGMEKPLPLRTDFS

By EC50 is commonly meant the concentration at which the effect is half-maximal. With `Nc1ncnc2c1ncn2[C@@H]1O[C@@H]2COP(=O)(S)O[C@H]3[C@@H](O)[C@H](n4cnc5c(O)ncnc54)O[C@@H]3COP(=O)(S)O[C@H]2[C@H]1O` (stereo partly specified), the EC50 was 1600 nM in test [1] and 7800 nM in test [2]. Regarding `Nc1ncnc2c1ncn2[C@H]1C[C@@H]2OP(=O)(O)OC[C@H]3O[C@@H](n4cnc5c(O)ncnc54)C[C@@H]3OP(=O)(O)OC[C@H]2O1`, the EC50 in test [2] was determined as 62300 nM.

Regarding `Nc1ncnc2c1ncn2[C@@H]1O[C@@H]2COP(=O)(O)O[C@H]3[C@@H](F)[C@H](n4cnc5c(O)ncnc54)O[C@@H]3COP(=O)(O)O[C@H]2[C@H]1F`, the EC50 in test [1] stood at 1100 nM; in test [2] it was 15400 nM. Taken in the same sequence, the figures for `Nc1ncnc2c1ncn2[C@@H]1O[C@@H]2COP(=O)(S)O[C@H]3[C@@H](F)[C@H](n4cnc5c(O)ncnc54)O[C@@H]3COP(=O)(S)O[C@H]2[C@H]1F` (stereo partly specified) were 300 nM and 1600 nM. The matching figures for `Nc1ncnc2c1ncn2[C@@H]1O[C@@H]2COP(=O)(O)O[C@H]3C[C@H](n4cnc5c(O)ncnc54)O[C@@H]3COP(=O)(O)O[C@H]2[C@H]1F`: 1400 nM and 25500 nM. Taken in the same sequence, the figures for `Nc1ncnc2c1ncn2[C@H]1C[C@@H]2OP(=O)(O)OC[C@H]3O[C@@H](n4cnc5c(O)ncnc54)[C@H](F)[C@@H]3OP(=O)(O)OC[C@H]2O1` were 2300 nM and 32300 nM.

The values are drawn from BindingDB's records for doi:10.1021/acs.jmedchem.6b01300 (Invivogen, 2016).
